Source: patent US20120245137A1 (Zalicus Pharmaceuticals Ltd., priority 2009, published 2012)

Legend:
Format in all cases: cell-based
[1] = molecular target: human α1H T-type channels (Homo sapiens, UniProt O95180); assay: T-type calcium channel block, whole cell patch clamp, α1H; settings: HEK cells stably expressing human α1H; mainly non-inactivated protocol; values above 10,000 nM represented as 10000
How it was run: (§1)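 Whole-cell T-type currents, stably transfected HEK 293 (human α1G/α1H), passage 4-20. Cmpd in external soln, 0.1-0.01% DMSO, local gravity perfusion after ~10 min rest. Two voltage protocols: non-inactivating (resting block), inactivation (voltage-dependent block).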

[2] = molecular target: human α1G T-type channels (Homo sapiens, UniProt O43497); assay: T-type calcium channel block, whole cell patch clamp, α1G; settings: HEK cells stably expressing human α1G; mainly non-inactivated protocol; values above 10,000 nM represented as 10000
human α1G T-type channels, sequence (O43497 whole entry): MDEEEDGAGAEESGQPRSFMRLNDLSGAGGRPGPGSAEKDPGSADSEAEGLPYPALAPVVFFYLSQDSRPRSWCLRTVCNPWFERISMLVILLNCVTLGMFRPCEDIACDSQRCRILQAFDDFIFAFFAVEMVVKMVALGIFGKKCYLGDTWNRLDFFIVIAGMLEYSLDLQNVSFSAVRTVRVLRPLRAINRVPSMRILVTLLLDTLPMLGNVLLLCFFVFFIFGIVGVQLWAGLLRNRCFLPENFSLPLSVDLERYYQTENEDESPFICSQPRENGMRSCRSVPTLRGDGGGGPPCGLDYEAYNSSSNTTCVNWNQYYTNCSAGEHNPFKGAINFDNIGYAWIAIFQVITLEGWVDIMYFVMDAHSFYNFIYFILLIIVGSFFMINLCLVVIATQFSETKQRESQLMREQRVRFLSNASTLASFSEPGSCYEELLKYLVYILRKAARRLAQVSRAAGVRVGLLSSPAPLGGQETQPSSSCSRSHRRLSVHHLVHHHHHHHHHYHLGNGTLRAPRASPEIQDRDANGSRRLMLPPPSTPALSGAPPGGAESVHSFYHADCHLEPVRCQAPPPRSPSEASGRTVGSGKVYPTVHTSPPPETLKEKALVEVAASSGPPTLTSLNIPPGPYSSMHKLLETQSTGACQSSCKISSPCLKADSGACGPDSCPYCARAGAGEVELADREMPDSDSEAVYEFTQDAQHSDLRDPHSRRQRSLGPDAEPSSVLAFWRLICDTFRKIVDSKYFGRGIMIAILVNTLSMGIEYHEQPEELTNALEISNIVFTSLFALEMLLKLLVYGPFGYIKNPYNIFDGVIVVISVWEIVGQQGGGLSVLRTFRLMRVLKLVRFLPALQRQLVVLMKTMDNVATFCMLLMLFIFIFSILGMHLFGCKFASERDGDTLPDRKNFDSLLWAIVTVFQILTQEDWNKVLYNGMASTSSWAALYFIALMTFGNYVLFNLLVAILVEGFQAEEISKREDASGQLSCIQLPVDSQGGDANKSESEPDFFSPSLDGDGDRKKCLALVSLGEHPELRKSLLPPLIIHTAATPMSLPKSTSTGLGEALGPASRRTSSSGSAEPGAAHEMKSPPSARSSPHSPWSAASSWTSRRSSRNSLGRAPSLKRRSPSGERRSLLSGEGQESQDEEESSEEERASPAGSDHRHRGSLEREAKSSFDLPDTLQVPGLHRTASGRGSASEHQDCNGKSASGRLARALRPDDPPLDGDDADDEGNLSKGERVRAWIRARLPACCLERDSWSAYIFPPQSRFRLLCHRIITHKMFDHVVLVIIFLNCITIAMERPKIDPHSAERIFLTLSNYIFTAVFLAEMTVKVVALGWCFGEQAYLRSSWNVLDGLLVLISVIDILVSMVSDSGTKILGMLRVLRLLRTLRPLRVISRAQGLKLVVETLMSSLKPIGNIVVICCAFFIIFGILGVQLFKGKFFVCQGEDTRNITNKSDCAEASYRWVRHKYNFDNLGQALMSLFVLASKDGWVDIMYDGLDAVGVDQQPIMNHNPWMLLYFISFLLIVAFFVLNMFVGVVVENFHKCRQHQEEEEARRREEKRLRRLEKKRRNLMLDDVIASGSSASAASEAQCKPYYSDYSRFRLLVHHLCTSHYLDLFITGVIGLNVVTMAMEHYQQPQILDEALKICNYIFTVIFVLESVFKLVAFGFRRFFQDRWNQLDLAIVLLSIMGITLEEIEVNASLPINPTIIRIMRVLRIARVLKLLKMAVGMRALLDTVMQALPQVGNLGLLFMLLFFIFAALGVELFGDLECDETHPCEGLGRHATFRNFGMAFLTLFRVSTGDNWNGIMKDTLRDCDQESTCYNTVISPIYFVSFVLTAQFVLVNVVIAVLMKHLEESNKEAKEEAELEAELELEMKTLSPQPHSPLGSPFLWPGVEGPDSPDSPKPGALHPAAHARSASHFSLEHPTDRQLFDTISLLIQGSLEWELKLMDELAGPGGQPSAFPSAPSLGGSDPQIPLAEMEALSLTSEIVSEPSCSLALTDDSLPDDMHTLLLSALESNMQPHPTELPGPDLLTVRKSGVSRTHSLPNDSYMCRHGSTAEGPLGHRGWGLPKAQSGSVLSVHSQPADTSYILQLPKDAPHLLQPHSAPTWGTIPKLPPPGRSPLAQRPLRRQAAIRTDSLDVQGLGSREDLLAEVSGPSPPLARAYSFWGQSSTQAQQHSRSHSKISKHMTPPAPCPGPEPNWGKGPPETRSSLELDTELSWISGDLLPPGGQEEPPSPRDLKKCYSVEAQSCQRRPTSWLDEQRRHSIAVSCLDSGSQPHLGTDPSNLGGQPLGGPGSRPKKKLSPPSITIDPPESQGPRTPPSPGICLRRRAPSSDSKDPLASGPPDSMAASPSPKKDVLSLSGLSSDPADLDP
How it was run: as §1

[3] = molecular target: N-type calcium channel subunits (α1B, α2δ, and β3a) (Homo sapiens, UniProt Q00975); assay: Block of Cav2.2 channel, whole cell voltage clamp, manual and PatchXpress; settings: Table 5; table follows Assay Example 3 (whole cell voltage clamp / PatchXpress); assay not given
How it was run: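 Percent block taken as current amplitude ratio with versus without compound, applied in rising doses; IC50 fitted where one cell received multiple doses. Protocol: 50 ms pulses to +20 mV at 0.067 Hz from […] or −90 mV holding; P/n leak subtraction, no junction-potential correction; manual and PatchXpress recordings.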

human α1H T-type channels, sequence (O95180 whole entry, the tested form may be a part): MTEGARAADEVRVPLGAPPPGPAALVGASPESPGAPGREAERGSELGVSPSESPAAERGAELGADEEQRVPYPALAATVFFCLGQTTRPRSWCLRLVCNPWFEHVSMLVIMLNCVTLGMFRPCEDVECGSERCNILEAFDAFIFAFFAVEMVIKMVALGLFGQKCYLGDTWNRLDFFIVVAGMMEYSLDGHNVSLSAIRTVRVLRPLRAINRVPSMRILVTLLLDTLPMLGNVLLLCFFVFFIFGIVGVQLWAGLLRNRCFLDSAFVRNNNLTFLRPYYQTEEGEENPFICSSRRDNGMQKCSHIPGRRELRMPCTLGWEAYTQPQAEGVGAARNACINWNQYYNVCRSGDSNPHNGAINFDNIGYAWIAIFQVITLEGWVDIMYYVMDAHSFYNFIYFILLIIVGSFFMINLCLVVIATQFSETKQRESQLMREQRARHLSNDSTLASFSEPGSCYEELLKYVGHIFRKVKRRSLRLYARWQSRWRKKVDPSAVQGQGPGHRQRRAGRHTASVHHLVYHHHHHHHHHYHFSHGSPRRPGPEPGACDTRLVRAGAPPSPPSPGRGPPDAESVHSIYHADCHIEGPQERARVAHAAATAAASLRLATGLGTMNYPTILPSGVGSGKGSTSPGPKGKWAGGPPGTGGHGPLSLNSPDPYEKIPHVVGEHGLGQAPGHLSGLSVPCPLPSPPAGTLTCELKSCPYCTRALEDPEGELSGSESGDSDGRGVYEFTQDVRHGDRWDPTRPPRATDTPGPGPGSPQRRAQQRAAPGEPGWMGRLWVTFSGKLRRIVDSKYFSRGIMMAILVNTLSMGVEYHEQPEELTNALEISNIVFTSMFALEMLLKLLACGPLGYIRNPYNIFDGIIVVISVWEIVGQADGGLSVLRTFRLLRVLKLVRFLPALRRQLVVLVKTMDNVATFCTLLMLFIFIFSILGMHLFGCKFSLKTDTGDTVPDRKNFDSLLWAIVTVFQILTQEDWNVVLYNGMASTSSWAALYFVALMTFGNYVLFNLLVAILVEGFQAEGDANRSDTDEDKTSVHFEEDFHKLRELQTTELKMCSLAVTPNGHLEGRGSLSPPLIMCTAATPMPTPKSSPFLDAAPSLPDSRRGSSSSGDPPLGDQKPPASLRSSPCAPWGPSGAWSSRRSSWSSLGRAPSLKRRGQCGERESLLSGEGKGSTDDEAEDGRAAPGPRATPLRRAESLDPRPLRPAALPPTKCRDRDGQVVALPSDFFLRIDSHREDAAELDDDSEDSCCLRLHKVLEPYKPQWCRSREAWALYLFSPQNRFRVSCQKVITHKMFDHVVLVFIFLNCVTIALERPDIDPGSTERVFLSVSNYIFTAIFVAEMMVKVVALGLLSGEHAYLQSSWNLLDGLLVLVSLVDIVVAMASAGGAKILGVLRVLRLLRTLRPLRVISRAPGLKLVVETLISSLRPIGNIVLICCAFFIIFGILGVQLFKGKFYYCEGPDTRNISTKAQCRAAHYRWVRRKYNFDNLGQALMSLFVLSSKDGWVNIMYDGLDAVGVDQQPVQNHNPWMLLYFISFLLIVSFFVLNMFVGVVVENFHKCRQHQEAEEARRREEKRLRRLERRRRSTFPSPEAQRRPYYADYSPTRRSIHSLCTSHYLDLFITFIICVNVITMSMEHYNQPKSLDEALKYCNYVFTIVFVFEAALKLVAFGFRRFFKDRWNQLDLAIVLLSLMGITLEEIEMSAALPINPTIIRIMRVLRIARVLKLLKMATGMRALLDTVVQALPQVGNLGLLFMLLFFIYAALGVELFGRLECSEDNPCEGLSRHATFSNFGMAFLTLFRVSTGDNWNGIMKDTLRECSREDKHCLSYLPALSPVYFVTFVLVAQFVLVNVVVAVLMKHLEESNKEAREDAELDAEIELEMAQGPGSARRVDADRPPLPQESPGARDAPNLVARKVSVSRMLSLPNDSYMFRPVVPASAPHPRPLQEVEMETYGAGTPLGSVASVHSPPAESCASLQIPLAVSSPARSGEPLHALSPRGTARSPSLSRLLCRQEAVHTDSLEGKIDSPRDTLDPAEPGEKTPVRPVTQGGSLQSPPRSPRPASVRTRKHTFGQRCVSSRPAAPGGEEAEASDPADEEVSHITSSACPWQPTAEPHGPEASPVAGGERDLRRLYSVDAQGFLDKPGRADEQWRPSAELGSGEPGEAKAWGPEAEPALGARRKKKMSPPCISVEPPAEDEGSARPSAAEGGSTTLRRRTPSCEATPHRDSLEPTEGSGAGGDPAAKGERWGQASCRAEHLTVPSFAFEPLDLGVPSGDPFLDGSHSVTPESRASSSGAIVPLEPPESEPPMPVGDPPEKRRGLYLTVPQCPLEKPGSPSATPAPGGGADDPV

Compound | IC50 [1] | IC50 [2] | IC50 [3]
O=C(N[C@H]1CC[C@H](CS(=O)(=O)c2cccc(C(F)(F)F)c2)CC1)c1ccc(F)c(C(F)(F)F)c1 [Compound 99, 4-fluoro-3-(trifluoromethyl)-N-((1R,4R)-4-((3-(trifluoromethyl)phenylsulfonyl)methyl)cyclohexyl)benzamide] | > 10000 nM | > 10000 nM | 3750 nM
4-chloro-2-(methylsulfonyl)-N- ((1R,4R)-4-(3- (trifluoromethyl)phenylsulfonyl) cyclohexyl)benzamide [Compound 121] | 930 nM | 720 nM | 3730 nM
O=C(N[C@H]1CC[C@@](F)(S(=O)(=O)c2cccc(C(F)(F)F)c2)CC1)c1cn2cc(C(F)(F)F)ccc2n1 [Compound 264, N-((1S,4S)-4-fluoro-4-(3-(trifluoromethyl)phenylsulfonyl)cyclohexyl)-6-(trifluoromethyl)imidazo[1,2-a]pyridine-2-carboxamide] | > 10000 nM | 4480 nM | 470 nM
Cn1nc(C(F)(F)F)cc1C(=O)NC1CCC(S(=O)(=O)c2cccc(C(F)(F)F)c2)CC1 (stereo not drawn) [Compound 13, 1-methyl-3-(trifluoromethyl)-N-(4-(3-(trifluoromethyl)phenylsulfonyl)cyclohexyl)-1H-pyrazole-5-carboxamide] | > 10000 nM | > 10000 nM | 690 nM
CC(C)(C)NC(=O)CNC1CCC(S(=O)(=O)c2cccc(C(F)(F)F)c2)CC1 (stereo not drawn) [Compound 16, N-tert-butyl-2-(4-(3-(trifluoromethyl)phenylsulfonyl)cyclohexylamino)acetamide] | 9180 nM | > 10000 nM | 140 nM
O=C(N[C@H]1CC[C@H](S(=O)(=O)c2cccc(C(F)(F)F)c2)CC1)c1ccc(C(F)(F)F)cn1 [Compound 62, 5-(trifluoromethyl)-N-((1R,4R)-4-(3-(trifluoromethyl)phenylsulfonyl)cyclohexyl)picolinamide] | 550 nM | 1080 nM | 3480 nM
O=C(NC1CCC(S(=O)(=O)c2cccc(C(F)(F)F)c2)CC1)c1cc(F)cc(Cl)c1 (stereo not drawn) [Compound 26, 3-chloro-5-fluoro-N-(4-(3-(trifluoromethyl)phenylsulfonyl)cyclohexyl)benzamide] | > 10000 nM | 2790 nM | 210 nM
O=C(CN[C@H]1CC[C@H](CS(=O)(=O)c2cccc(C(F)(F)F)c2)CC1)NCC(F)(F)F [Compound 113, N-(2,2,2-trifluoroethyl)-2-((1R,4R)-4-((3-(trifluoromethyl)phenylsulfonyl)methyl)cyclohexylamino)acetamide] | 5350 nM | > 10000 nM | 130 nM
CC(C)(C)NC(=O)CN[C@H]1CC[C@H](CS(=O)(=O)c2cccc(C(F)(F)F)c2)CC1 [Compound 114, N-tert-butyl-2-((1R,4R)-4-((3-(trifluoromethyl)phenylsulfonyl)methyl)cyclohexylamino)acetamide] | > 10000 nM | > 10000 nM | 510 nM
O=C(N[C@H]1CC[C@@H](S(=O)(=O)c2cccc(C(F)(F)F)c2)CC1)c1ccc(Cl)c(OC(F)(F)F)c1 [Compound 133, 4-chloro-3-(trifluoromethoxy)-N-((1S,4S)-4-(3-(trifluoromethyl)phenylsulfonyl)cyclohexyl)benzamide] | 400 nM | 350 nM | 210 nM
O=C(N[C@H]1CC[C@@H](CS(=O)(=O)c2cccc(C(F)(F)F)c2)CC1)c1ccc(Cl)c(F)c1 [Compound 141, 4-chloro-3-fluoro-N-((1S,4S)-4-((3-(trifluoromethyl)phenylsulfonyl)methyl)cyclohexyl)benzamide] | 3610 nM | 4250 nM | 600 nM
CC1(NC(=O)CN[C@H]2CC[C@@](F)(S(=O)(=O)c3cccc(C(F)(F)F)c3)CC2)CCC1 [Compound 89, 2-((1S,4S)-4-fluoro-4-(3-(trifluoromethyl)phenylsulfonyl)cyclohexylamino)-N-(1-methylcyclobutyl)acetamide] | 990 nM | 1710 nM | 120 nM
O=C(CNCC1CC(S(=O)(=O)c2cccc(C(F)(F)F)c2)C1)NC1CCCCC1 (stereo not drawn) [Compound 97, N-cyclohexyl-2-((3-(3-(trifluoromethyl)phenylsulfonyl)cyclobutyl)methylamino)acetamide] | > 10000 nM | 2140 nM | 490 nM
CS(=O)(=O)c1ccc(C(=O)N[C@H]2CC[C@@](F)(S(=O)(=O)c3cccc(C(F)(F)F)c3)CC2)cc1 [Compound 271, N-((1S,4S)-4-fluoro-4-(3-(trifluoromethyl)phenylsulfonyl)cyclohexyl)-4-(methylsulfonyl)benzamide] | 1650 nM | 2630 nM | 8160 nM

Results, then the compound that gave them:

IC50 [1] | IC50 [2] | IC50 [3] | Compound
1460 nM | 8530 nM | 30 nM | CC(C)S(=O)(=O)c1cc(C(F)(F)F)cnc1C(=O)N[C@H]1CC[C@@](F)(S(=O)(=O)c2cccc(C(F)(F)F)c2)CC1 [Compound 281, N-((1S,4S)-4-fluoro-4-(3-(trifluoromethyl)phenylsulfonyl)cyclohexyl)-3-(isopropylsulfonyl)-5-(trifluoromethyl)picolinamide]
4710 nM | > 10000 nM | 520 nM | CN(C(=O)c1ccc(F)c(Cl)c1)[C@H]1CC[C@@](F)(S(=O)(=O)c2cc(F)cc(C(F)(F)F)c2)CC1 [Compound 335, 3-chloro-4-fluoro-N-((1S,4S)-4-fluoro-4-(3-fluoro-5-(trifluoromethyl)phenylsulfonyl)cyclohexyl)-N-methylbenzamide]
1540 nM | 2410 nM | 3120 nM | Cn1nc(C(F)(F)F)cc1C(=O)NC1(C)CCC(S(=O)(=O)c2cccc(C(F)(F)F)c2)CC1 (stereo not drawn) [Compound 307, 1-methyl-N-(1-methyl-4-(3-(trifluoromethyl)phenylsulfonyl)cyclohexyl)-3-(tritluoromethyl)-1H-pyrazole-5-carboxamide]
2470 nM | > 10000 nM | 710 nM | O=C(N[C@H]1CC[C@@](F)(S(=O)(=O)c2cc(F)cc(C(F)(F)F)c2)CC1)c1cc(C(F)(F)F)ccn1 [Compound 328, N-((1S,4S)-4-fluoro-4-(3-fluoro-5-(trifluoromethyl)phenylsulfonyl)cyclohexyl)-4-(trifluoromethyl)picolinamide]
2430 nM | > 10000 nM | 1020 nM | O=C(Nc1cccc(C(F)(F)F)n1)[C@H]1C[C@H](S(=O)(=O)c2cccc(C(F)(F)F)c2)C1 [Compound 411, (1R,3R)-3-(3-(trifluoromethyl)phenylsulfonyl)-N-(6-(trifluoromethyl)pyridin-2-yl)cyclobutanecarboxamide]
> 10000 nM | > 10000 nM | 430 nM | CS(=O)(=O)c1cc(C(=O)N[C@H]2CC[C@@](F)(S(=O)(=O)c3cccc(C(F)(F)F)c3)CC2)cc(C(F)(F)F)n1 [Compound 273, N-((1R,4R)-4-fluoro-4-(3-(trifluoromethyl)phenylsulfonyl)cyclohexyl)-2-(methylsulfonyl)-6-(trifluoromethyl)isonicotinamide]
400 nM | 950 nM | 940 nM | CS(=O)(=O)c1cc(Cl)ccc1C(=O)NC[C@H]1C[C@H](S(=O)(=O)c2cccc(C(F)(F)F)c2)C1 [Compound 368, 4-chloro-2-(methylsulfonyl)-N-(((1R,3R)3-(3-(trifluoromethyl)phenylsulfonyl)cyclobutyl)methyl)benzamide]
> 10000 nM | > 10000 nM | 680 nM | O=C(N[C@H]1C[C@H](CS(=O)(=O)c2cccc(C(F)(F)F)c2)C1)c1cc(F)cc(Cl)c1 [Compound 344, 3-chloro-5-fluoro-N-((1R,3R)-3-((3-(trifluoromethyl)phenylsulfonyl)methyl)cyclobutyl)benzamide]
780 nM | 1560 nM | 620 nM | O=C(N[C@H]1CC[C@@](F)(S(=O)(=O)c2cc(F)cc(C(F)(F)F)c2)CC1)c1cn2cc(C(F)(F)F)ccc2n1 [Compound 332, N-((1S,4S)-4-fluoro-4-(3-fluoro-5-(trifluoromethyl)phenylsulfonyl)cyclohexyl)-6-(trifluoromethyl)imidazo[l,2-a]pyridine-2-carboxamide]
1540 nM | 3190 nM | 390 nM | O=C(N[C@H]1CC[C@@](F)(S(=O)(=O)c2cccc(C(F)(F)F)c2)CC1)[C@@H]1C[C@H](c2ccccc2)CN1 [Compound 286, (2S,4R)-N-((1S,4R)-4-fluoro-4-(3-(trifluoromethyl)phenylsulfonyl)cyclohexyl)-4-phenylpyrrolidine-2-carboxamide]
300 nM | 850 nM | 720 nM | O=S(=O)(N[C@H]1CC[C@@](F)(S(=O)(=O)c2cccc(C(F)(F)F)c2)CC1)c1ccc(C(F)(F)F)cc1Cl [Compound 297, 2-chloro-N-((1S,4S)-4-fluoro-4-(3-(trifluoromethyl)phenylsulfonyl)cyclohexyl)-4-(trifluoromethyl) benzenesulfonamide]
> 10000 nM | > 10000 nM | 890 nM | COc1cc(F)cc(C(=O)N[C@H]2C[C@H](CS(=O)(=O)c3cccc(C(F)(F)F)c3)C2)c1 [Compound 349, 3-fluoro-5-methoxy-N-((1R,3R)-3-((3-(trifluoromethyl)phenylsulfonyl)methyl)cyclobutyl)benzamide]
